Reference: PMC9962741, “In Silico and In Vitro Screening of Serine Racemase Agonist and In Vivo Efficacy on Alzheimer’s Disease Drosophila melanogaster” (Pharmaceuticals, 2023)

Molecular target: T1, serine racemase (SRR) (Homo sapiens, UniProt Q9GZT4)
T1 construct: SRR Enzyme Human Recombinant (ENZ-232, ProSpec)
T1 sequence (Q9GZT4 1-340): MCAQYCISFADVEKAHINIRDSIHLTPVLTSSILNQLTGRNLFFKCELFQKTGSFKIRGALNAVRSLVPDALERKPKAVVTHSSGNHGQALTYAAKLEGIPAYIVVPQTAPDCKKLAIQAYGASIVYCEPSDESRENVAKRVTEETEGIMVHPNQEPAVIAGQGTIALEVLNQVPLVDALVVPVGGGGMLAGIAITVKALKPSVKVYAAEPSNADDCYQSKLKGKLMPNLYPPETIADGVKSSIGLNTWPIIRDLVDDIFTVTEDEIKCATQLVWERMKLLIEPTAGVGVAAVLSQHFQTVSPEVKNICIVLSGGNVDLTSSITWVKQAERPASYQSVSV
Assay: recombinant SRR racemization of L-serine, D-serine read by coupled DAAO/HRP luminol luminescence (activation)
Type: biochemical

% increase of SRR activity: 200 % increase of SRR activity
Structure (SMILES): NC(CSc1nc2ccccn2c1[N+](=O)[O-])C(=O)O (stereo not shown) [NSC294149, 2-amino-3-(3-nitroimidazo[1,2-a]pyridin-2-yl)sulfanylpropanoic acid]
